Assay results from patent publication US20220104481A1, “CRYOPRESERVATION OF STEM CELLS” (TiGenix, S.A.U., priority 2019, published 2022).

Columns and labels:
Format in all cases: cell-based, human
[1] = tested on: mature dendritic cells (mDC); assay: Co-culture of monocytes with ASCs: mDC differentiation, activation clusters (microscopy); details: NAC-pretreated ASCs, donors A and B, transwell co-culture (FIGS. 10, 11)
Method: Frozen vials of PBMCs were thawed, counted and CD14^+ CD16^− monocytes were isolated using the Dynabeads Untouched Human Monocytes kit (Dynal #11350D), following the manufacturer's instructions.
Isolated CD14^+ CD16^− monocytes (see above) were plated in 5 mL of RPMIc at 1.5 million cells per 6-well (Falcon #353046), in normoxia. The following factors were added for differentiation into non-polarized M0 macrophages or further polarization into M1, M2 macrophages and mature dendritic cells (mDC) populations in monocultures (based on several publications, including Beyer et al., PLoS One (2012) 7(9): e45466; Erbel et al., J. Vis. Exp. (2013) 76: e50332; Zhou et al, 2014; Tarique et al, American Journal of Respiratory Cell and Molecular Biology 2015; 53(5):676-688.
Immature DC (iDC): RPMIc+5 ng/mL GM-SCF+10 ng/mL IL-4 for 5 days Maturation of DC (mDC): at day 5, add 40 ng/mL LPS (i.e. add 500 μL/well of RPMIc supplemented with 400 ng/mL LPS to the pre-existing media). Human recombinant GM-CSF (#100-22B) and IL-4 (#200-04) were from Peprotech. LPS (#L8274) was from SIGMA. The addition of GM-C SF and IL4 mediates the differentiation to immature dendritic cells (iDC); 5 days later addition of LPS induces the maturation of iDCs to mDCs, and after 2 days the phenotype and function of these mature DC were analysed in the presence or absence of the ASC. Co-Culture Experiments with ASCs […]

[2] = tested on: mature dendritic cells (mDC); assay: Phagocytosis of Staphylococcus aureus particles by mDC co-cultured with ASCs; details: NAC-pretreated ASCs, non-contact co-culture (FIG. 12)
Method: After differentiation in monoculture or co-culture in vitro (the differentiation conditions, including the cytokines used, concentrations and times of differentiation, are provided in Example 7), macrophages and mDC were harvested using 0.05% Trypsin-EDTA for 10 minutes at 37° C. The phagocytic potential of polarized macrophages or mDC was assessed using pHRodo Red-conjugated S. aureus particles (Life Technologies #A10010) following manufacturer's instructions. Briefly, 50,000 mDC were transferred to a 96-well U bottom wells (Corning #3799) and the cells were rested for 60 minutes in RPMIc. Lyophilized pHRodo conjugated particles were reconstituted in 1 mL of RPMIc per vial prior to use, and particles were sonicated for 5 minutes at 20% amplitude. Then, 50 μL of pHRodo […] were added per well and the cells were incubated for 60 minutes in normoxia at 37° C. Afterwards, phagocytosis was stopped on ice and cells were washed and stained with 5 μL 7-aminoactinomycin D (7AAD) prior to FACS analysis in Fortessa cytometer (BD). Negative controls for phagocytosis were cells without pHRodo reagent. Results were analysed in FlowJo software. The intensity of the fluorescence in the PE channel is proportional to the amount of bacterial particles phagocytosed per cell.

ASCs [3] = assay: ASC identity assay by flow cytometry (CD29, CD73, CD90, CD105); details: 6 mM NAC pretreatment; two weeks in culture post-thawing; donor A (FIG. 7)
ASCs [4] = assay: MTS assay after post-thaw seeding of ASCs pretreated with compounds prior to freezing; details: for increase in mitochondrial activity compared to non-treated cells (MTS, 490 nm): pretreatment with 6 mM NAC
Method: ASCs from donor A were thawed by warming the vials in a 37° C. bath and diluting the freezing medium containing DMSO with fresh complete DMEM (DMEM/F-12 media—GlutaMAX™-I, Gibco, supplemented with 100 μg/mL penicillin/streptomycin and 10% FBS). Cells were centrifuged at 450 g for 6 minutes at room temperature to eliminate leftover DMSO and plated in T-175 flasks at 20.000 cells/cm^2 in complete DMEM.
A 600 mM stock of NAC (SIGMA) was prepared in Milli-Q water (Millipore). This stock was used for pre-treatment and post-treatment by adding directly 50 μL stock solution per well into 5 mL of medium, making a final concentration of 6 mM. For 2 mM, only 16.7 μL were added per well, and in the case of 12 mM, 100 μL of stock were added. DMSO was used as the vehicle for sc79 and LY294.
Following the pretreatment step, the medium was removed, the cells were washed with PBS and trypsinized using trypsin-EDTA 0.25% (ThermoFisher) for 8 minutes at 37° C. After trypsin inactivation with complete DMEM, cells were harvested and centrifuged prior to resuspension in freezing medium (FBS with 10% DMSO), and frozen into 500,000 or 1 million cells per vial and stored in liquid nitrogen for further use. Specifically, the cells were frozen at −80° C. for 24 hours in a Cool Cell® device (BioCision) and then transferred to a liquid nitrogen storage container. All experiments were performed in incubators and 37° C., 5% CO2.
[…] The CellTiter 96° Aqueous One Solution Cell Proliferation Assay is a colorimetric method for determining the number of viable cells. The CellTiter 96° Aqueous One Solution reagent contains a tetrazolium compound [3-(4,5-dimethylthiazol-2-yl)-5-(3-carboxymethoxyphenyl)-2-(4-sulfophenyl)-2H-tetrazolium, MTS] and an electron coupling reagent (phenazine ethosulfate; PES). The MTS tetrazolium compound is bioreduced by cells—presumably by NADPH or NADH produced by dehydrogenase enzymes in metabolically active cells—into a coloured formazan product that is soluble in tissue culture medium.
Briefly, 40 μL of the reagent was added to 200 μL of complete DMEM in each well and absorbance was measured after 2-3 hours at 490 nm using a […]. Each condition was measured in 6 technical repeats. The MTS assay results are presented as percentage of absorbance at 490 nm relative to the non-treated (NT) cells.

## CC(=O)N[C@@H](CS)C(=O)O [NAC, N-Acetylcysteine]
[1]
  ASC modulation of mDC activation (no activation clusters): not disrupted
[2]
  ability of ASCs to increase phagocytosis potential of mDCs: did not alter their ability to increase the phagocytosis potential of mDCs
ASCs [3]
  expression of ASC identity markers CD29, CD73, CD90 and CD105: does not alter the expression of ASC identity markers
ASCs [4]; 6 mM NAC pretreatment for 24 hours, 24 hours post-seeding after thaw (FIG. 2)
  cell number by MTS assay versus non-treated: increased cell numbers
ASCs [4]; 6 mM NAC pretreatment, FIGS. 4B & C (24 and 96 hours post-thaw)
  increase of mitochondrial activity after NAC pretreatment (MTS): 15-20%
ASCs [4]; 24 hours culture post-thaw (FIG. 4B)
  increase in mitochondrial activity compared to non-treated cells (MTS, 490 nm): greater than 35%
ASCs [4]; 96 hours culture post-thaw (FIG. 4C)
  increase in mitochondrial activity compared to non-treated cells (MTS, 490 nm): greater than 15%
